Where a name gives a salt, the structure may show the parent alone.
Assay: collision cross section in nitrogen (drift tube, single-field); higher = larger gas-phase ion size
[1] = ion type: [M+H], ion source: APCI, ion mode: Positive
[2] = ion type: [M+H], ion source: ESI, ion mode: Positive
[3] = ion type: [M-H], ion source: ESI, ion mode: Negative
[4] = ion type: [M+Na], ion source: ESI, ion mode: Positive
[5] = ion type: [M+], ion source: APCI, ion mode: Positive
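Further: chemical standards at 10 µM analysed by drift tube IMS-QTOF MS in about 3.95 torr nitrogen, mean of duplicate injections differing ≤1%, mass error below 10 ppm.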

CCN(CC)c1ccc(C=NN(c2ccccc2)c2ccccc2)cc1 [4-[(Diphenylhydrazinylidene)methyl]-N,N-diethylaniline]
collision cross section in nitrogen [1]: 189.8 Å² | collision cross section in nitrogen [2]: 200.7 Å²

CC(C)(C)c1ccc(N)cc1 [4-tert-Butylaniline]
collision cross section in nitrogen [1]: 147.3 Å² | collision cross section in nitrogen [2]: 147.6 Å²

CC(C)(C)c1ccc(O)c(O)c1 [4-tert-Butylcatechol]
collision cross section in nitrogen [3]: 139.3 Å²

CC(C)(C)c1ccc(OC(=O)c2ccccc2O)cc1 [4-tert-Butylphenyl salicylate]
collision cross section in nitrogen [3]: 168.4 Å²

N#Cc1ccc(CC(=O)c2cccc(C(F)(F)F)c2)cc1 [4-{2-Oxo-2-[3-(trifluoromethyl)phenyl]ethyl}benzonitrile]
collision cross section in nitrogen [3]: 163 Å²

O=C1NC(=O)C(c2ccccc2)(c2ccccc2)N1 [5,5-Diphenylhydantoin]
collision cross section in nitrogen [3]: 160 Å²

c1cnc2c(n1)CCCC2 [5,6,7,8-Tetrahydroquinoxaline]
collision cross section in nitrogen [1]: 126.6 Å²

O=c1cc(-c2ccccc2)oc2ccc3ccccc3c12 [5,6-Benzoflavone]
collision cross section in nitrogen [1]: 160.8 Å² | collision cross section in nitrogen [2]: 160.2 Å² | collision cross section in nitrogen [4]: 181.8 Å²

COc1cc(OC)c2ccc(=O)oc2c1 [5,7-Dimethoxy-2H-chromen-2-one]
collision cross section in nitrogen [1]: 139.1 Å² | collision cross section in nitrogen [2]: 139.6 Å²

O=[N+]([O-])c1ccc(-c2nnc(O)o2)o1 [5-(5-Nitro-2-furyl)-1,3,4-oxadiazole-2-ol]
collision cross section in nitrogen [3]: 135.2 Å²

Cc1ccc(N)cc1S(=O)(=O)O [5-Amino-2-methylbenzenesulfonic acid]
collision cross section in nitrogen [3]: 137.7 Å²

Cc1ccc(N)cc1O [5-Amino-2-methylphenol]
collision cross section in nitrogen [2]: 123.5 Å²

Nc1ccc(O)c(C(=O)O)c1 [5-Aminosalicylic acid]
collision cross section in nitrogen [3]: 127.8 Å²

S=c1[nH]c2cc(Cl)ccc2s1 [5-Chloro-1,3-benzothiazole-2(3H)-thione]
collision cross section in nitrogen [3]: 133.3 Å²

O=C(Nc1ccc([N+](=O)[O-])cc1Cl)c1cc(Cl)ccc1O [5-Chloro-N-(2-chloro-4-nitrophenyl)-2-hydroxybenzamide]
collision cross section in nitrogen [3]: 164.6 Å²

Clc1ccc2[nH]nnc2c1 [5-Chlorobenzotriazole]
collision cross section in nitrogen [2]: 128.5 Å² | collision cross section in nitrogen [3]: 123.2 Å²

O=C(Nc1ccccc1)c1cc(Cl)ccc1O [5-Chlorosalicylanilide]
collision cross section in nitrogen [3]: 151.9 Å²

CCC1(C)NC(=O)NC1=O (configuration not stated) [5-Ethyl-5-methylhydantoin]
collision cross section in nitrogen [3]: 129.7 Å²

O=c1[nH]cc(F)c(=O)[nH]1 [5-Fluorouracil]
collision cross section in nitrogen [3]: 115.4 Å²

COc1c2ccoc2cc2oc(=O)ccc12 [5-Methoxypsoralen]
collision cross section in nitrogen [1]: 139.3 Å² | collision cross section in nitrogen [2]: 140.3 Å²

Cc1ccc2[nH]nnc2c1 [5-Methyl-1H-benzotriazole]
collision cross section in nitrogen [1]: 125.1 Å² | collision cross section in nitrogen [2]: 124.8 Å² | collision cross section in nitrogen [3]: 125.2 Å²

CC(C)CCCC(=O)O [5-Methylhexanoic acid]
collision cross section in nitrogen [3]: 136.9 Å²

Cc1cccc2nccnc12 [5-Methylquinoxaline]
collision cross section in nitrogen [1]: 126.5 Å²

O=[N+]([O-])c1ccc2[nH]c(S)nc2c1 [5-Nitro-2-mercaptobenzimidazole]
collision cross section in nitrogen [3]: 133.6 Å²

c1ccc(-c2nnn[nH]2)cc1 [5-Phenyl-1H-tetrazole]
collision cross section in nitrogen [3]: 127.7 Å²

CC1CCc2nccnc21 (configuration not stated) [6,7-Dihydro-5-methyl-5H-cyclopentapyrazine]
collision cross section in nitrogen [1]: 127.6 Å²

CC(C)c1ccc2ncccc2c1 [6-(1-Methylethyl)quinoline]
collision cross section in nitrogen [1]: 138 Å² | collision cross section in nitrogen [2]: 138.5 Å²

Nc1ccc2cc(S(=O)(=O)O)ccc2c1 [6-Aminonaphthalene-2-sulfonic acid]
collision cross section in nitrogen [3]: 150.3 Å²

O=c1[nH]c2ccc(Cl)cc2o1 [6-Chloro-2,3-dihydrobenzoxazol-2-one]
collision cross section in nitrogen [3]: 125.6 Å²

Cc1cc(O)c(C(C)C)cc1Cl [6-Chlorothymol]
collision cross section in nitrogen [3]: 140.5 Å²

Oc1ccc2cc(SSc3ccc4cc(O)ccc4c3)ccc2c1 [6-Hydroxy-2-naphthyl disulfide]
collision cross section in nitrogen [3]: 185.8 Å²

Oc1cccc(O)n1 [6-Hydroxy-2-oxopyridinium chloride]
collision cross section in nitrogen [2]: 120.2 Å² | collision cross section in nitrogen [3]: 115 Å²

COc1ccc2nc(N)sc2c1 [6-Methoxy-2-benzothiazolamine]
collision cross section in nitrogen [1]: 136.6 Å² | collision cross section in nitrogen [2]: 136.6 Å²

Cc1ccc2c(c1)CCCN2 [6-Methyl-1,2,3,4-tetrahydroquinoline]
collision cross section in nitrogen [1]: 134.5 Å² | collision cross section in nitrogen [2]: 134.8 Å²

Cc1cc(=O)[nH]c(=S)[nH]1 [6-Methyl-2-thiouracil]
collision cross section in nitrogen [3]: 123.1 Å²

Cc1ccc(O)cn1 [6-Methyl-3-hydroxypyridine]
collision cross section in nitrogen [1]: 118.1 Å² | collision cross section in nitrogen [2]: 119.4 Å² | collision cross section in nitrogen [3]: 120.4 Å²

Cc1cccc(N)n1 [6-Methylpyridin-2-amine]
collision cross section in nitrogen [1]: 118.6 Å² | collision cross section in nitrogen [2]: 119.5 Å²

Cc1ccc2ncccc2c1 [6-Methylquinoline]
collision cross section in nitrogen [1]: 125.7 Å² | collision cross section in nitrogen [2]: 125.8 Å² | collision cross section in nitrogen [5]: 124.3 Å²

Cc1cc(=O)[nH]c(=O)[nH]1 [6-Methyluracil]
collision cross section in nitrogen [3]: 120.5 Å²

O=[N+]([O-])c1ccc2[nH]cnc2c1 [6-Nitrobenzimidazole]
collision cross section in nitrogen [1]: 136.5 Å² | collision cross section in nitrogen [2]: 136.5 Å² | collision cross section in nitrogen [3]: 123.6 Å²

Nc1nc(N)nc(-c2ccccc2)n1 [6-Phenyl-1,3,5-triazine-2,4-diamine]
collision cross section in nitrogen [1]: 140.2 Å² | collision cross section in nitrogen [2]: 140.6 Å²

Nc1nc2nc[nH]c2c(=S)[nH]1 [6-Thioguanine]
collision cross section in nitrogen [1]: 132.4 Å² | collision cross section in nitrogen [2]: 133.4 Å² | collision cross section in nitrogen [4]: 142.3 Å² | collision cross section in nitrogen [3]: 128.9 Å²

NC(=O)c1ccc(N)nc1 [6-aminopyridine-3-carboxamide]
collision cross section in nitrogen [1]: 130.2 Å² | collision cross section in nitrogen [2]: 131.3 Å² | collision cross section in nitrogen [3]: 124.5 Å²

Cc1cc(C)c(O)c(C(C)(C)C)c1 [6-tert-Butyl-2,4-xylenol]
collision cross section in nitrogen [3]: 144.9 Å²

O=[PH]1Oc2ccccc2-c2ccccc21 (configuration not stated) [6H-Dibenzo[c,e][1,2]oxaphosphinine 6-oxide]
collision cross section in nitrogen [2]: 146.1 Å² | collision cross section in nitrogen [3]: 145.8 Å²

O=C1c2ccccc2C(=O)c2c1ccc1ccccc21 [7,12-Benz(a)anthraquinone]
collision cross section in nitrogen [3]: 155.7 Å²

Cc1c2ccccc2c(C)c2c1ccc1ccccc12 [7,12-Dimethylbenz[a]anthracene]
collision cross section in nitrogen [5]: 155.2 Å²

Cc1cc(=O)oc2cc(N(C)C)ccc12 [7-(Dimethylamino)-4-methylcoumarin]
collision cross section in nitrogen [1]: 140.9 Å² | collision cross section in nitrogen [2]: 141.3 Å² | collision cross section in nitrogen [4]: 165.6 Å² | collision cross section in nitrogen [3]: 148.6 Å²

Nc1ccc2c(O)cc(S(=O)(=O)O)cc2c1 [7-Amino-4-hydroxynaphthalene-2-sulfonic acid]
collision cross section in nitrogen [3]: 153.3 Å²

CCN(CC)c1ccc2c(C)cc(=O)oc2c1 [7-Diethylamino-4-methylcoumarin]
collision cross section in nitrogen [1]: 152.6 Å² | collision cross section in nitrogen [2]: 152.6 Å² | collision cross section in nitrogen [4]: 176.4 Å² | collision cross section in nitrogen [3]: 159.4 Å²

CCCCC(CC)CCC(CC(C)C)OS(=O)(=O)O (configuration not stated) [7-Ethyl-2-methyl-4-undecanolsulfate, sodium salt]
collision cross section in nitrogen [3]: 175.2 Å²

O=S(=O)(O)c1ccc(O)c2ncccc12 [8-Hydroxyquinoline-5-sulfonic acid hydrate (1:x)]
collision cross section in nitrogen [2]: 146.7 Å² | collision cross section in nitrogen [3]: 142.4 Å²

Nc1c2ccccc2nc2ccccc12 [9-Aminoacridine hydrochloride monohydrate]
collision cross section in nitrogen [1]: 138.8 Å² | collision cross section in nitrogen [2]: 138.9 Å² | collision cross section in nitrogen [5]: 139 Å² | collision cross section in nitrogen [3]: 139.3 Å²

CCn1c2ccccc2c2cc([N+](=O)[O-])ccc21 [9-Ethyl-3-nitro-9H-carbazole]
collision cross section in nitrogen [2]: 152 Å²

O=[N+]([O-])c1c2ccccc2cc2ccccc12 [9-Nitroanthracene]
collision cross section in nitrogen [1]: 145.5 Å² | collision cross section in nitrogen [3]: 145.1 Å²

Oc1cc2ccccc2c2ccccc12 [9-Phenanthrol]
collision cross section in nitrogen [3]: 140.7 Å²

CC(C)CCCCCCCCCCCCCCC(=O)O [16-Methylheptadecanoic acid]
collision cross section in nitrogen [3]: 177.5 Å²

CCCCCC(=O)O[C@]1(C(C)=O)CC[C@H]2[C@@H]3CCC4=CC(=O)CC[C@]4(C)[C@H]3CC[C@@]21C [17-((1-Oxohexyl)oxy)pregn-4-ene-3,20-dione]
collision cross section in nitrogen [4]: 225.6 Å² | collision cross section in nitrogen [3]: 212.9 Å²

Source: the supplement of paper PMC12317010
